Assay results as given in article PMC11314063, “Inhibition of DNA Topoisomerase Ι by Flavonoids and Polyacetylenes Isolated from Bidens pilosa L” (Molecules, 2024).
Where two headings read alike, the source gives them in different places.

Tests used:
[1] = SRB cytotoxicity assay, hepatocyte HL-7702; type: cell-based, human; conditions: SRB assay, 48 h, human hepatocyte, mean ± SD, read-out: IC50 Cytotoxicity HL-7702
From the text: (§1) The cell lines MDA-MB-231 (No. TCHu227), A549 (No. TCHu150), and HepG2 (No. TCHu72) were obtained from the Cell Bank/Stem Cell Bank, Chinese Academy of Sciences (Shanghai, China). The cell lines DLD-1 (No. CC0507) and HCT116 (No. CC0506) were obtained from the Cell Bank of Cellcook Biotech Co., Ltd. (Guangzhou, China). Cell line HL-7702 (No. BNCC338358) was obtained from Bena Culture Collection (Zhengzhou, China).
(§2) The human cancer cell lines MDA-MB-231 (breast adenocarcinoma), DLD-1 (colorectal adenocarcinoma), A549 (lung epithelial carcinoma), HCT116 (colorectal adenocarcinoma), HepG2 (hepatocellular carcinoma), and human hepatocyte HL-7702 were cultured in Dulbecco’s modified eagle medium (DMEM, Biological Industries, Beit Haemek, Israel) containing 10% (v/v) fetal bovine serum (FBS, Biological Industries, Beit Haemek, Israel) at 37 °C in a humidified incubator (ThermoFisher, Carlsbad, CA, USA) with a 5% CO2 atmosphere.

A549 = experiment: SRB cytotoxicity assay, A549; type: cell-based; conditions: Homo sapiens, read-out: IC50 Cytotoxicity A549
From the text: as §1, §2

DLD-1 cells = experiment: DNA content analysis (cell cycle, flow cytometry) in DLD-1; type: cell-based, human; conditions: 24 h; for percentage of cell population in the G2/M phase / percentage of cells in the G1/S (combined) phase: DLD-1, 2 μM
Procedure: Cells were seeded in 6-well plates and allowed to adhere for 24 h at 37 °C. After treatment with different concentrations of the samples for another 24 h, the cells were harvested and washed with PBS, and then, the DNA content analysis was conducted with a cell cycle staining kit (Multi sciences, Hangzhou, China), according to the manufacturer’s instructions. The fluorescence intensity of the cells was measured by flow cytometry (Beckman CytoFlex, Miami, FL, USA).

DLD-1 = experiment: SRB cytotoxicity assay, DLD-1; type: cell-based; conditions: Homo sapiens, read-out: IC50 Cytotoxicity DLD-1
From the text: as §1, §2

DNA Topo I = biological target: T1, DNA Topo I (Homo sapiens, UniProt P11387); experiment: Topo I inhibition assay (DNA relaxation assay); type: biochemical; conditions: for IC50: DNA relaxation assay, pBR322, mean ± SD; for inhibition at 400 µM: read-out: percentage inhibition on Topo I activity
T1 construct: purchased ThermoFisher, Waltham, MA, USA
T1 sequence (P11387 1-765): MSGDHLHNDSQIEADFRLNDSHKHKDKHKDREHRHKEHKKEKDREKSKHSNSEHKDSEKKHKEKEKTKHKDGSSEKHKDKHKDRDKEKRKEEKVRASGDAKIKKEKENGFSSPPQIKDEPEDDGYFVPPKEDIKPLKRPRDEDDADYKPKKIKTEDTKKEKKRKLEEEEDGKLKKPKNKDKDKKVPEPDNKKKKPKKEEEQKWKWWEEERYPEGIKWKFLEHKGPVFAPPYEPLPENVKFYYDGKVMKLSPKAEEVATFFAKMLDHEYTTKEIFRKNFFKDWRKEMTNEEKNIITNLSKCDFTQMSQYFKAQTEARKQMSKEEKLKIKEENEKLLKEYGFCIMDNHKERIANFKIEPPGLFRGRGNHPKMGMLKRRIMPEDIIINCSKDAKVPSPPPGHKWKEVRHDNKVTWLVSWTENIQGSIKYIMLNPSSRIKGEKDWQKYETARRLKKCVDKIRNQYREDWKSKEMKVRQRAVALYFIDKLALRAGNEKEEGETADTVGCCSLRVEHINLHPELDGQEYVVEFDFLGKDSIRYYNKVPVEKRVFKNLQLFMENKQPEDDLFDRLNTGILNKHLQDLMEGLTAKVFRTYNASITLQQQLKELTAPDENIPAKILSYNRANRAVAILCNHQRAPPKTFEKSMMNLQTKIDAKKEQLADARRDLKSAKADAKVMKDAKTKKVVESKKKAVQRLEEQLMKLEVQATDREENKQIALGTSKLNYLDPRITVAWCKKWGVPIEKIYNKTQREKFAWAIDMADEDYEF
Procedure: The DNA relaxation assay was adopted to investigate the compounds’ inhibitory activities on Topo I. Different concentrations of the compounds, dissolved and diluted in DMSO, were added into the relaxation buffer (50 mM Tris, pH 7.5, 50 mM KCl, 10 mM MgCl2, 0.1 mM EDTA, 0.5 Mm dithiothreitol, and 0.05 mg/mL bovine serum albumin) containing 0.2 U Topo I (ThermoFisher, Waltham, MA, USA) and incubated at room temperature for 10 min. After that, 500 ng supercoiled pBR322 plasmid DNA (ThermoFisher, Waltham, MA, USA) was added and then incubated at 37 °C for another 30 min. Finally, the reactions were stopped with a stopping solution (5% sodium dodecyl sulfate, 0.0025% bromophenol blue, and 25% glycerol), and the mixtures were applied onto 0.8% agarose gel and subjected to electrophoresis for 1.5 h in Tris-Acetate-EDTA buffer. After being stained with GelRed (Biotium, Fremont, CA, USA), the gel was imagined with the imaging system (Biotop, Shanghai, China). […] The band density of the supercoiled DNA was quantified by the ImageJ software (version 1.53a, National Institutes of Health, Bethesda, MD, USA), and the inhibition activity is expressed as the percentage inhibition and calculated by formula: Inhibition % = [(A − B)/(C − B)] × 100%, where A is the band density of the tested samples, B is the band density of the negative control, and C is the band density of the blank control.

MDA-MB-231 = experiment: SRB cytotoxicity assay, MDA-MB-231; type: cell-based; conditions: Homo sapiens, read-out: IC50 Cytotoxicity MDA-MB-231
From the text: as §1, §2

HepG2 = experiment: SRB cytotoxicity assay, HepG2; type: cell-based; conditions: Homo sapiens, read-out: IC50 Cytotoxicity HepG2
From the text: as §1, §2

HCT116 = experiment: SRB cytotoxicity assay, HCT116; type: cell-based; conditions: Homo sapiens, read-out: IC50 Cytotoxicity HCT116
From the text: as §1, §2

[2] = test system: A549, HCT116, MDA-MB-231, HepG2, DLD-1, HL-7702; experiment: SRB cytotoxicity assay, panel of five human cancer cell lines and one human hepatocyte cell line; conditions: tested concentration of 200 μM
Procedure: The cytotoxicities of 1–29 were tested by an SRB assay on a panel of five human cancer cell lines and one human hepatocyte cell line.
The cytotoxic activities of the compounds against cancer cells were examined with a sulforhodamine B (SRB) colorimetric assay. Cells were seeded at a density of 5 × 10^3/well in 96-well plates for 24 h; various concentrations of the tested compounds, dissolved in DMSO and diluted with the complete medium, were added in the wells in triplicate and incubated for 48 h. After that, the cell viability was assessed with the SRB assay as we described before. The IC50 values were determined using the Reed and Muench method and are expressed as the mean ± SD of at least three independent measurements.

[3] = A549, SRB assay, 48 h, mean ± SD
[4] = DLD-1, SRB assay, 48 h, mean ± SD
[5] = MDA-MB-231, SRB assay, 48 h, mean ± SD
[6] = HepG2, SRB assay, 48 h, mean ± SD
[7] = HCT-116, SRB assay, 48 h, mean ± SD

SMILES	IC50 (DNA Topo I) [µM]	inhibition at 400 µM (DNA Topo I) [%]	IC50 at 48 h ([1]; HL-7702 hepatocyte cell line) [µM]	IC50 (A549; [3]) [µM]	percentage of cells in the G1/S phase (DLD-1 cells; DLD-1, 0.5 μM) [%]	percentage of cells in the G1/S phase (DLD-1 cells; DLD-1, 1 μM) [%]	percentage of cell population in the G2/M phase (DLD-1 cells) [%]	percentage of cells in the G1/S (combined) phase (DLD-1 cells) [%]	IC50 (DLD-1; [4]) [µM]	IC50 (MDA-MB-231; [5]) [µM]	IC50 (HepG2; [6]) [µM]	IC50 (HCT116; [7]) [µM]	cytotoxicity in all cell lines [2]	IC50 at 48 h [1] [µM]	IC50 (A549; A549, 48 h) [µM]	IC50 (DLD-1; DLD-1, 48 h) [µM]	IC50 (MDA-MB-231; MDA-MB-231, 48 h) [µM]	IC50 (HepG2; HepG2, 48 h) [µM]	IC50 (HCT116; HCT-116, 48 h) [µM]
O=c1c(O[C@@H]2O[C@H](CO)[C@H](O)[C@H](O)[C@H]2O)c(-c2ccc(O)cc2)oc2cc(O)cc(O)c12 [Compound 11]	> 400	28.6	> 200	> 200					> 200	> 200	> 200	> 200	no cytotoxicity						
O=C1/C(=C/c2ccc(O)c(O)c2)Oc2c1ccc(O[C@@H]1O[C@H](CO)[C@@H](O)[C@H](O)[C@H]1O)c2O [Compound 18]	> 400	46.7	> 200	> 200					> 200	> 200	> 200	> 200							
OCC(O)CC#CC#Cc1ccccc1 (stereo not drawn) [Compound 21]	> 400	23	> 200	187 ± 6.63					> 200	> 200	> 200	> 200							
CC#CC#CC#Cc1ccccc1 [Compound 23]	> 400	15.2	198.8 ± 0.86	130 ± 4.93					123 ± 8.76	140 ± 5.53	168 ± 10.8	70.9 ± 3.73							
CC#CC#CC#CC=CC1OCCCC1OC(C)=O (stereo not drawn) [Compound 24]	218 ± 50.8												no cytotoxicity	> 200	> 200	> 200	> 200	> 200	> 200
CC#CC#CC#C/C=C/CCC(CCO)O[C@@H]1O[C@H](CO)[C@@H](O)[C@H](O)[C@H]1O (stereo partly drawn) [Compound 25]	> 400													> 200	174 ± 12.3	187 ± 17.4	> 200	> 200	162 ± 15.8
CC#CC#CC#C/C=C/CCC(CO)O[C@@H]1O[C@H](CO)[C@@H](O)[C@H](O)[C@H]1O (stereo partly drawn) [Compound 26]	> 400		> 200	188 ± 15.8					> 200	> 200	> 200	> 200							
CC#CC#CC#CC#CCCC(CO)O[C@@H]1O[C@H](CO)[C@@H](O)[C@H](O)[C@H]1O (stereo partly drawn) [Compound 27]	> 400		> 200	188 ± 14.9					144 ± 7.36	164 ± 11.7	> 200	112 ± 6.59							
C=C[C@H](O)[C@H](/C=C/C#CC#CC#CC)O[C@@H]1O[C@H](CO)[C@@H](O)[C@H](O)[C@H]1O [Compound 28]	> 400		> 200	190 ± 12.1					> 200	> 200	> 200	> 200							
C=CCCCCC[C@H](O)[C@@H](O)[C@H](C#CC#CCCC)OC [Compound 29]	> 400												no cytotoxicity	> 200	> 200	> 200	> 200	> 200	> 200

The remaining compounds from weak to strong by IC50 (DNA Topo I), led by results:

IC50 (DNA Topo I) [µM]	inhibition at 400 µM (DNA Topo I) [%]	SMILES	IC50 at 48 h ([1]; HL-7702 hepatocyte cell line) [µM]	IC50 (A549; [3]) [µM]	percentage of cells in the G1/S phase (DLD-1 cells; DLD-1, 0.5 μM) [%]	percentage of cells in the G1/S phase (DLD-1 cells; DLD-1, 1 μM) [%]	percentage of cell population in the G2/M phase (DLD-1 cells) [%]	percentage of cells in the G1/S (combined) phase (DLD-1 cells) [%]	IC50 (DLD-1; [4]) [µM]	IC50 (MDA-MB-231; [5]) [µM]	IC50 (HepG2; [6]) [µM]	IC50 (HCT116; [7]) [µM]	cytotoxicity in all cell lines [2]	IC50 at 48 h [1] [µM]	IC50 (A549; A549, 48 h) [µM]	IC50 (DLD-1; DLD-1, 48 h) [µM]	IC50 (MDA-MB-231; MDA-MB-231, 48 h) [µM]	IC50 (HepG2; HepG2, 48 h) [µM]	IC50 (HCT116; HCT-116, 48 h) [µM]
301 ± 34.9		OC[C@H](O)CC#CC#Cc1ccc(O)cc1 [Compound 20, (R)-7-(4-hydroxyphenyl) hepta-4,6-diyne-1,2-diol]	> 200	194 ± 12.8					> 200	> 200	> 200	174 ± 2.47							
239 ± 31.4		COc1ccc(-c2oc3c(O)c(OC)c(O)cc3c(=O)c2OC)cc1O [Compound 6]	23.9 ± 5.73	3.09 ± 0.28	82.61	88.65	76.49	22.91	1.58 ± 0.07	> 200	34.6 ± 8.01	0.59 ± 0.1							
224 ± 27.2		COc1cc(-c2oc3cc(O)c(OC)c(O)c3c(=O)c2OC)ccc1O [Compound 7]	11.4 ± 4.42	0.86 ± 0.03	81.16	86.07	75.75	24.26	0.85 ± 0.02	81.6 ± 7.43	28.4 ± 13.1	0.43 ± 0.03							
178 ± 45.7		CC(O)CC#CC#Cc1ccccc1 (stereo not drawn) [Compound 22]	161 ± 2.18	125 ± 23.4					142 ± 10.2	146 ± 7.17	179 ± 3.62	118 ± 5.7							
47.5 ± 15.3		CC(=O)OC[C@H]1O[C@@H](Oc2ccc3c(c2O)O/C(=C\c2ccc(O)c(O)c2)C3=O)[C@H](O)[C@@H](O)[C@@H]1O [Compound 19]	> 200	> 200					> 200	> 200	> 200	> 200							
